Results published in patent publication US20060088545A1, “Use of inhibitors of the protease of the human immunodeficiency virus (hiv) to block cell migration and/or invasion, tissue infiltration and oedema for the therary of diseases associated therewith” (priority 2001, published 2006).

Key:
[1] = tested on: VEGF; assay: VEGF production by KS cells (ELISA); format: cell-based, human; conditions: 0.1, 1 and 10 μM; 5 days + 24 hours
Description: After 24 hours of incubation, the supernatants of the cultures were tested by ELISA (R & D Systems, Minneapolis, Minn., USA) to determine the quantity of IL-6 present in the medium. The quantity of IL-6 is expressed in pg/ml of supernatant. The same tests were carried out for bFGF, VEGF, IL-1α and IL-1β by means of commercial ELISA kits.
KS cells secrete cytokines with an inflammatory, oedemigenic, angiogenic and proliferative activity with autocrine and paracrine effects (Ensoli and Stürzl, 1998). These factors mediate all the processes required for KS-like lesions formation (angiogenesis, cellular proliferation and invasion, inflammatory Infiltration, oedema) and vascular permeability and oedema induced by KS cells in nude mice. […] The quantity of bFGF, VEGF, IL-1 and IL-6 was dosed with immuno-enzymatic trials in the supernatants of the KS cells after 24 hours of culture in the absence of serum and in the continuous presence of the two HIV-PI (ELISA). […] Furthermore IL-6 plays a key role in the multicentric Cstleman's diseases and in the growth of lymphomas (Tosato et al., 1993; Peterson and Frizzera, 1993; Asou et al., 1998; Ramsay et al., 1994), another type of tumour whose incidence is reduced in patients treated with HIV-PI (International Collaboration on HIV and Cancer 2000).

[2] = tested on: myelo-monocytic leukaemia (U937) cells; assay: Invasion assay of U937 cells in response to bFGF; format: cell-based, human; conditions: 1 or 10 μM
Description: Shown is the result of a representative invasion assay performed on the myelo-monocytic leukaemia cells U937. […] The invasion assays were performed in the Boyden chamber. Polycarbonate filters (5 μM pores; Nucleoprobe, Cabin John, Md.) were coated first with collagen IV and then with Matrigel (Collaborative Biomedical Products) as described previously (Barillari et al., 1999b). […] Human recombinant bFGF (50 ng/ml) was placed in the lower compartment as chemoattractant. […] Louis, Mo.). Ten random filter fields were counted by light microscopy as described previously (Barillari et al., 1999b). Assays were repeated two times.

[3] = tested on: breast carcinoma cells (MDA-MB-468); assay: Cell growth assay of MDA-MB-468 cells; format: cell-based, human; conditions: 10 μM; 4 days
Description: Shown is the result of a representative cell growth assay performed on the breast carcinoma cells. Human breast carcinoma cells (MDA-MB468; ATCC) were plated in triplicate (8×10^4 cells/well) in 12-well plates. […] Ensoli et al., 1994b): For all the in vitro studies HIV-PI as endotoxin-free pure powder (a kind gift of Merck Sharp & Dohme and Roche) were resuspended in distilled water. Assays were repeated at least three times.

[4] = tested on: smooth muscle cells; assay: Invasion assay of smooth muscle cells in response to bFGF; format: cell-based, human
Source text: Assays have been essentially performed as described in key to FIGS. 1 and 3. […] Data of duplicate experiments (mean) are shown.

[5] = tested on: EA-hy 926 cells; assay: Tumour angiogenic lesions induced by Ea-hy 926 cells in nude mice, no drug pre-treatment; format: in vivo; conditions: treatment started on the day of cell inoculation, 5 days
Description: Mice were inoculated subcutaneously into the lower back with Ea-hy 926 cells (3×10^6 cells/animal in 0.2 ml of 10% FBS RPMI 1640) or with the resuspension medium, all mixed with 0.2 ml of growth factor-depleted matrigel (BD Biosciences, Bedford, Mass.) prior to inoculation as described above. […] Treatment was then continued for 5 days, until sacrifice. The size of the lesions present at the injection site was evaluated daily by caliper measurement. External lesion area was then calculated as the product of the two major lesion diameters. The mean size (cm^2) of the lesions present at the injection site is shown.
To determine whether HIV-PI could inhibit the growth of a malignant angiogenic tumour, nude mice were inoculated with the EA-hy 926 cell line. This cell line is derived from a hybrid between H-UVEC and human lung adeno-carcinoma cells (Edgell et al, PNAS 1983), retains most of the endothelial cell markers and is used as an angiogenic tumour model (Albini et al, Nat Med 1996; Albini et al, PNAS 1995; Cai et al, Lab Invest 1999). HIV-PI were administered to nude mice starting 2 days prior to tumour cell inoculation. […] Similarly, the external tumour area was reduced in mice treated with both HIV-PI (P<0.05), reaching the size of the negative controls (Table 7). […] Inhibition of tumour growth was also observed in the absence of drug pre-treatment (FIG. 25). […]

[6] = tested on: EA-hy 926 cells; assay: Angiogenic tumours induced by EA-hy 926 cells in nude mice (drug pre-treatment); format: in vivo; conditions: EA-hy 926 cells 3×10^6; for No. of mice with macroscopic lesions/No. of inoculated mice / mice with macroscopic lesions (%): treatment since 2 days prior to inoculation
Description: To determine whether HIV-PI could inhibit the growth of a malignant angiogenic tumour, nude mice were inoculated with the EA-hy 926 cell line. This cell line is derived from a hybrid between H-UVEC and human lung adeno-carcinoma cells (Edgell et al, PNAS 1983), retains most of the endothelial cell markers and is used as an angiogenic tumour model (Albini et al, Nat Med 1996; Albini et al, PNAS 1995; Cai et al, Lab Invest 1999). HIV-PI were administered to nude mice starting 2 days prior to tumour cell inoculation.
Mice were sacrificed 5-6 days after cell injection and lesions present at the injection site measured by caliper, and analyzed microscopically after H&E staining or by immuno-histochemical analysis. […] Tumour-associated angiogenesis was evaluated after immuno-histochemical staining for FVIII-RA or CD31 markers, as described in legend to Table 1. Shown are external lesion size (cm^2±SD) and the percentage of stained tumour tissue (±SD) as quantified by the KS300 image analysis software (Zeiss) (see methods).

[7] = tested on: dermal microvascular endothelial cells (H-DMVEC); assay: Invasion assay of dermal microvascular endothelial cells in response to bFGF; format: cell-based, human
Description: Both assays were performed by the Boyden chamber separated in two compartments by polycarbonate filters with 12 μm pores (Nucleoprobe, Cabin John, Md.), coated with collagen IV (Collaborative Biomedical Products) for migration, or with collagen IV and Matrigel together for invasion, as described previously (Barillari et al., 1999b). […] After 5 hours (migration) or 6 hours (Invasion) of incubation, the non-migrated cells present on the top surface of the filters were mechanically removed, while the migrated cells on the bottom surface were fixed in methanol and stained with toluidine blue (Sigma Chemical Co., St. Louis, Mo.). The cells present in 5-10 microscopic fields of the filters, chosen at random, were counted as described previously (Barillari et al., 1999b).
Basal invasion in the absence of bFGF was assumed as 100%.

[8] = tested on: KS cells; assay: KS cell proliferation (trypan blue dye exclusion); format: cell-based, human; conditions: 7 days

| SMILES | production of VEGF by KS cells [1] | invasive capacity in response to bFGF [2] | proliferation [3] | invasion in response to bFGF [4] | regression of tumour angiogenic lesions (lesion size) [5] | External lesion size (cm^2 ± SD) [6] | Tissue staining (area % ± SD) CD31 [6] | Tissue staining (area % ± SD) FVIII-RA [6] | No. of mice with macroscopic lesions/No. of inoculated mice [6] | mice with macroscopic lesions (%) [6] | mice with macroscopic lesions (%) ([6]; listed as indinavir) | invasion in response to bFGF [7] | KS cell proliferation (viable cells, trypan blue) [8] |
| --- | --- | --- | --- | --- | --- | --- | --- | --- | --- | --- | --- | --- | --- |
| CC(C)(C)NC(=O)[C@@H]1CN(Cc2cccnc2)CCN1C[C@@H](O)C[C@@H](Cc1ccccc1)C(=O)N[C@H]1c2ccccc2C[C@H]1O [Indinavir, indinavir] | reduced | inhibit | do not interfere | inhibit | promote the regression | 0.63 ± 0.17 cm^2 | 0.70 ± 0.6% | 1.01 ± 1.5% | 4/12 | 33.3% | 33% | inhibit | no effect |
| CC(C)(C)NC(=O)[C@@H]1C[C@@H]2CCCC[C@@H]2CN1C[C@@H](O)[C@H](Cc1ccccc1)NC(=O)[C@H](CC(N)=O)NC(=O)c1ccc2ccccc2n1 [Saquinavir, saquinavir] | reduced | inhibit | do not interfere | inhibit | promote the regression | 0.55 ± 0.14 cm^2 | 0.08 ± 0.1% | 0.71 ± 0.8% | 3/12 | 25% | – | inhibit | no effect |
